Assay results taken from paper PMC6874667, “A conserved odorant binding protein is required for essential amino acid detection in Drosophila” (Communications Biology, 2019).
Counter-ions that a name gives are not always drawn.

The compounds below were run against T1, OBP19b (Drosophila melanogaster, UniProt Q9VR95) (assay: biochemical). Conditions: NPN displacement; buffer blank 13.4 % not subtracted.
T1 construct: mature OBP19b without its native signal peptide
T1 sequence (Q9VR95 34-163): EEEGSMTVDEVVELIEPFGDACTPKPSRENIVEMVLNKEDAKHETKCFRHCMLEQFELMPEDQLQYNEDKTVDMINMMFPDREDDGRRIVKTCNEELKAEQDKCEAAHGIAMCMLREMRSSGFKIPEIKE
Parameters: competitive NPN probe displacement from recombinant OBP19b, fluorescence 340/415 nm, single concentration, per cent fluorescence displacement
Protocol: To measure the affinity of OBP19b to ligands, a competitive screening assay was performed at 23 °C using a 96-well microplate format and a Victor3 V microplate reader (PerkinElmer Life Sciences) with 25 and 5 nm slits for excitation and emission, respectively. The excitation wavelength was 340 nm, and the fluorescence emission intensity was recorded at 415 nm. First, a wide screening array involving various ligand compounds was performed. Each well contained 200 µL of 2 µM OBP19b with 4 µM NPN dissolved in 50 mM sodium phosphate buffer at pH 7.5. Fatty acids and bitter compounds were tested in the µM range, whereas sugars, amino acids, vitamins, acids, amines, and isothiocyanate compounds were tested in the mM range. All tested compounds were dissolved in 10% methanol except amino acids, which were dissolved in 50 mM sodium phosphate buffer at pH 7.5. Based on the results of the first screen, the 20 L-amino acids, certain D-amino acids and three nonproteinogenic amino acids were tested by adding 100 µL of a 30 mM ligand stock solution to the microplate wells to obtain a final concentration of 15 mM, and then the solution was mixed. Significant differences using one-way analysis of variance (ANOVA) followed by Dunnett’s test were observed compared to the buffer (***p < 0.001; **p < 0.01). The competitive-binding curves were identified by titration of OBP19b/NPN complex with aliquots of 50 mM ligand to final concentration ranging from 0 to 20 mM. The dissociation constants (Kdapp) of each compound were calculated according to the corresponding IC50 values (the concentration of ligands required to halve the initial fluorescence value of NPN) using the following equation: Kdapp = [IC50]/(1 + […]/KNPN), where [NPN] is the free concentration of NPN. The reported Kdapp values are the average of three measurements performed on three independently experiments.  Fig. 2 Binding properties of OBP19b with a competitive fluorescent assay. The fluorescent displacement of the fluorescent probe NPN by various taste compounds was evaluated by adding aliquots of 50 mM ligand (dissolved in 50 mM sodium phosphate buffer at pH 7.5) to final concentration ranging from 0 to 20 mM. a Fatty acid esters and bitter compounds were tested at a final concentration of 40 µM. b Amino acids, vitamins, acids, amines, trigeminal (isothiocyanate), and sugars compounds were tested at a 15 mM final concentration. c Fluorescent displacement of 20 L-amino acids, including L-phenylalanine (L-Phe: magenta color), L-glutamine (L-Gln: green) and L-alanine (L-Ala: cyan); three nonproteinogenic amino acids L-ornithine (L-Orn), L-canavanine (L-Can), L-citrulline (L-Cit); and three D-amino acids (D-phenylalanine: orange, D-glutamine: blue, and D-alanine: gray). Dots indicate essential amino acids. Statistical differences were determined using one-way ANOVA followed by Dunnett’s test (***p < 0.001; **p < 0.01). d Competitive-binding curves of L-Phe and L-Gln (showing the lowest Kdapp), L-Ala (negative control), and their three corresponding D-isomers. Data values represent the mean ± SEM.

Compound | inhibition at 15000 µM [%]
C[C@@H](N)C(=O)O [D-alanine] | 23.5
NC(=O)CC[C@@H](N)C(=O)O [D-glutamine] | 22.6
N[C@H](Cc1ccccc1)C(=O)O [D-phenylalanine] | 28.3
NCC(=O)O [Glycine] | 31.6
NC(=O)CC[C@H](N)C(=O)O [L-Gln, L-glutamine] | 40.7
N[C@@H](Cc1ccccc1)C(=O)O [L-Phe, L-phenylalanine] | 44
C[C@H](N)C(=O)O [L-alanine] | 27.2
N=C(N)NCCC[C@H](N)C(=O)O [L-arginine] | 40.5
NC(=O)C[C@H](N)C(=O)O [L-asparagine] | 41.2
N[C@@H](CC(=O)O)C(=O)O [L-aspartic acid] | 43.4
NC(N)=NOCC[C@H](N)C(=O)O [L-canavanine sulfate salt] | 22.2
N[C@@H](CS)C(=O)O [L-cysteine] | -14.4
N[C@@H](CCC(=O)O)C(=O)O [L-glutamic acid] | -0.061
N[C@@H](Cc1c[nH]cn1)C(=O)O [L-histidine] | 7.44
CC[C@H](C)[C@H](N)C(=O)O [L-isoleucine] | 22.8
CC(C)C[C@H](N)C(=O)O [L-leucine] | 22.8
NCCCC[C@H](N)C(=O)O [L-lysine] | 20.2
CSCC[C@H](N)C(=O)O [L-methionine] | 37.3
NCCC[C@H](N)C(=O)O [L-ornithine dihydro chloride] | 25.1
O=C(O)[C@@H]1CCCN1 [L-proline] | 20.1
N[C@@H](CO)C(=O)O [L-serine] | 46.2
C[C@@H](O)[C@H](N)C(=O)O [L-threonine] | 17.8
N[C@@H](Cc1c[nH]c2ccccc12)C(=O)O [L-tryptophan] | 36.2
N[C@@H](Cc1ccc(O)cc1)C(=O)O [L-tyrosine] | -122
CC(C)[C@H](N)C(=O)O [L-valine] | 16.2

These compounds were tested against T1, OBP19b (assay: competitive NPN fluorescence displacement, single dose […]). Conditions: not given.
Type: binding

Compound | competitive NPN fluorescence displacement, single dose 40 μM
COc1ccc2cc3[n+](cc2c1OC)CCc1cc2c(cc1-3)OCO2 [berberine] | The highest level of fluorescence displacement was induced by papaverine, berberine, 2-phenylethyl isothiocyanate
COc1ccc(Cc2nccc3cc(OC)c(OC)cc23)cc1OC [papaverine] | The highest level of fluorescence displacement was induced by papaverine, berberine, 2-phenylethyl isothiocyanate

What follows are compounds tested against T1, OBP19b (assay: direct fluorescence titration with fluorescent probe). Conditions: not given.
Type: binding

Compound | Kd [µM]
c1ccc(Nc2cccc3ccccc23)cc1 [NPN, N-phenyl-1-naphthylamine] | 4.1 ± 0.9
